Consider 29 compounds from US7566712B2, “Biaryl piperazinyl-pyridine analogues” (Neurogen Corporation, priority 2003, dated 2009).

Each structure is given as a SMILES string.

In the assay the target is T1, human capsaicin receptor (Homo sapiens, UniProt Q8NER1).
T1 construct: pBK-CMV expression construct encoding the full length human capsaicin receptor; expressed in transfected cells
The assay is described as follows: Calcium mobilization assay, determination of antagonist activity (Example 6). The format is cell-based. Particulars: Table II; determined as described in Example 6 (antagonist activity); "*" = 1 micromolar or less. In short, it runs like this:
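HEK293 clonal lines stably expressing full-length human capsaicin receptor, loaded with Fluo-3 AM in KRH buffer pH 7.4, 1–2 h at 37 °C. Compounds (1–5 μM final) preincubated 0.5–6 h at room temperature, then capsaicin at its EC50 added. FLIPR/Fluoroskan calcium signal; IC50 as 50% decrease of capsaicin response.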

T1 sequence (Q8NER1 whole entry): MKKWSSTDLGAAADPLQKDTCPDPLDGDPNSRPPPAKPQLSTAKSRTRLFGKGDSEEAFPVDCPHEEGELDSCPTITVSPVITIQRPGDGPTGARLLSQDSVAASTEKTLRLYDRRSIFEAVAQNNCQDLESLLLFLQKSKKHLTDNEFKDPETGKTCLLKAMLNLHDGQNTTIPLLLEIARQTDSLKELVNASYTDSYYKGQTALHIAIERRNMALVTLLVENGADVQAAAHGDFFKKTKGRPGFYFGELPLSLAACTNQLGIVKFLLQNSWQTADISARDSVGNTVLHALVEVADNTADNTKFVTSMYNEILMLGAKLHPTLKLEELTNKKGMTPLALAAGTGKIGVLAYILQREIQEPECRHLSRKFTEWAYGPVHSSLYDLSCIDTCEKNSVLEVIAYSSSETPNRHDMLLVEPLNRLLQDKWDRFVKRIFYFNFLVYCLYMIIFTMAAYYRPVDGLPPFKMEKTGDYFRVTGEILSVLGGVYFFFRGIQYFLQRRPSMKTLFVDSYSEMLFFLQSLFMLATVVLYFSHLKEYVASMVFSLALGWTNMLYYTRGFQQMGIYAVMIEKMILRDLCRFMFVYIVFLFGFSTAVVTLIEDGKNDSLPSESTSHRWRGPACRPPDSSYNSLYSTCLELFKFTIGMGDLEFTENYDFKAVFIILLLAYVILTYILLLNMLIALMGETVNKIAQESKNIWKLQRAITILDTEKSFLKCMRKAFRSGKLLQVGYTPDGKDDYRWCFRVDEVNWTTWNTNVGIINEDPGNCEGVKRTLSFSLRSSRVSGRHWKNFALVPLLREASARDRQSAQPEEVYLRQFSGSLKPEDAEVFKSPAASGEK

On to `COc1ccc(-c2cc(N3CCN(c4ncccc4Cl)C[C@H]3C)nc(N3CCCC3)n2)cc1C` [Example 809, 4-[(2R)-4-(3-chloropyridin-2-yl)-2-methylpiperazin-1-yl]-6-(4-methoxy-3-methylphenyl)-2-pyrrolidin-1-ylpyrimidine], for which the half-maximal inhibitory concentration (IC50) is no more than 1 µM. Regarding `COc1ccc(-c2cc(N3CCN(c4ncccc4Cl)C[C@H]3C)nc(N3CCCC3C)n2)cc1C` (stereo partly drawn) [Example 810, 4-[(2R)-4-(3-chloropyridin-2-yl)-2-methylpiperazin-1-yl]-6-(4-methoxy-3-methylphenyl)-2-(2-methylpyrrolidin-1-yl)pyrimidine], the IC50 was no more than 1 µM. Regarding `CC(C)N(C)C1CN(c2nc(-c3ccc(F)c(Cl)c3)cc(N3CCN(c4ncccc4C(F)(F)F)CC3)n2)C1` [Example 811, 1-(4-(3-chloro-4-fluorophenyl)-6-{4-[3-(trifluoromethyl)pyridin-2-yl]piperazin-1-yl}pyrimidin-2-yl)-N-isopropyl-N-methylazetidin-3-amine], the IC50 was no more than 1 µM. Turning to `CCOC(=O)CN(C)c1nc(-c2ccc(F)c(Cl)c2)cc(N2CCN(c3ncccc3C(F)(F)F)CC2)n1` [Example 812, ethyl N-(4-(3-chloro-4-fluorophenyl)-6-{4-[3-(trifluoromethyl)pyridin-2-yl]piperazin-1-yl}pyrimidin-2-yl)-N-methylglycinate], the IC50 is no more than 1 µM. Under `[O-][n+]1ccc(-c2nc(-c3ccc(F)c(Cl)c3)cc(N3CCN(c4ncccc4C(F)(F)F)CC3)n2)cc1` [Example 813, 4-(3-chloro-4-fluorophenyl)-2-(1-oxidopyridin-4-yl)-6-{4-[3-(trifluoromethyl)pyridin-2-yl]piperazin-1-nlyl}pyrimidine] stands no more than 1 µM; under `Cc1cc(N)cnc1N1CCN(c2cc(-c3ccc(F)c(Cl)c3)nc(N3CCCC3C)n2)CC1` (centres unmarked) [Example 814, 6-{4-[6-(3-chloro-4-fluorophenyl)-2-(2-methylpyrrolidin-1-yl)pyrimidin-4-yl]piperazin-1-yl}-5-methylpyridin-3-amine], no more than 1 µM; under `Cc1cc(O)cnc1N1CCN(c2cc(-c3ccc(F)c(Cl)c3)nc(N3CCCC3C)n2)CC1` (centres unmarked) [Example 815, 6-{4-[6-(3-chloro-4-fluorophenyl)-2-(2-methylpyrrolidin-1-yl)pyrimidin-4-yl]piperazin-1-yl}-5-methylpyridin-3-ol], no more than 1 µM. `CC(=O)Nc1cnc(N2CCN(c3cc(-c4ccc(F)c(Cl)c4)nc(N4CCCC4C)n3)CC2)c(C)c1` (centres unmarked) [Example 816, N-(6-{4-[6-(3-chloro-4-fluorophenyl)-2-(2-methylpyrrolidin-1-yl)pyrimidin-4-yl]piperazin-1-yl}-5-methylpyridin-3-yl)acetamide]: the IC50 is no more than 1 µM. For the compound `Cc1cc(NS(C)(=O)=O)cnc1N1CCN(c2cc(-c3ccc(F)c(Cl)c3)nc(N3CCCC3C)n2)CC1` (centres unmarked) [Example 817, N-(6-{4-[6-(3-chloro-4-fluorophenyl)-2-(2-methylpyrrolidin-1-yl)pyrimidin-4-yl]piperazin-1-yl}-5-methylpyridin-3-yl)methanesulfonamide], the IC50 was no more than 1 µM. With `COc1cnc(N2CCN(c3cc(-c4ccc(F)c(Cl)c4)nc(N4CCCC4C)n3)CC2)c(C)c1` (centres unmarked) [Example 818, 4-(3-chloro-4-fluorophenyl)-6-[4-(5-methoxy-3-methylpyridin-2-yl)piperazin-1-yl]-2-(2-methylpyrrolidin-1-yl)pyrimidine] the figure was no more than 1 µM.

For the compound `CCCN1CCN(c2nc(-c3ccc(F)c(Cl)c3)cc(N3CCN(c4ncc(N)cc4C)CC3)n2)CC1` [Example 819, 6-{4-[6-(3-chloro-4-fluorophenyl)-2-(4-propylpiperazin-1-yl)pyrimidin-4-yl]piperazin-1-yl}-5-methylpyridin-3-amine], the IC50 is no more than 1 µM. With `C[C@@H]1CN(c2nccnc2Cl)CCN1c1cc(-c2ccc(F)c(F)c2)nc(N2CCCC2)n1` [Example 820, 4-[(2R)-4-(3-chloropyrazin-2-yl)-2-methylpiperazin-1-yl]-6-(3,4-difluorophenyl)-2-pyrrolidin-1-ylpyrimidine] the figure was no more than 1 µM; with `CC1CCCN1c1nc(-c2ccc(F)c(F)c2)cc(N2CCN(c3nccnc3Cl)C[C@H]2C)n1` (some centres unmarked) [Example 821, 4-[4-(3-chloropyrazin-2-yl)-2-methylpiperazin-1-yl]-6-(3,4-difluorophenyl)-2-(2-methylpyrrolidin-1-yl)pyrimidine], no more than 1 µM. For the compound `C[C@@H]1CN(c2nccnc2Cl)CCN1c1cc(-c2ccc(F)c(F)c2)nc(N2CCOCC2)n1` [Example 822, 4-[4-[(2R)-4-(3-chloropyrazin-2-yl)-2-methylpiperazin-1-yl]-6-(3,4-difluorophenyl)pyrimidin-2-yl]morpholine], the IC50 was no more than 1 µM. For `CC1CCCN1c1nc(-c2ccc(F)c(Cl)c2)cc(N2CCN(c3ncc(C(=O)N(C)C)cc3Cl)CC2)n1` (centres unmarked) [Example 824, 5-chloro-6-{4-[6-(3-chloro-4-fluorophenyl)-2-(2-methylpyrrolidin-1-yl)pyrimidin-4-yl]piperazin-1-yl}-N,N-dimethylnicotinamide], the IC50 was no more than 1 µM. In the case of `CNC(=O)c1cnc(N2CCN(c3cc(-c4ccc(F)c(Cl)c4)nc(N4CCCC4C)n3)CC2)c(Cl)c1` (centres unmarked) [Example 825, 5-chloro-6-{4-[6-(3-chloro-4-fluorophenyl)-2-(2-methylpyrrolidin-1-yl)pyrimidin-4-yl]piperazin-1-yl}-N-methylnicotinamide], the IC50 was no more than 1 µM.

Turning to `C[C@@H]1CN(c2ccncc2Cl)CCN1c1cc(-c2ccc(F)c(F)c2)nc(Cl)n1` [Example 826, 2-chloro-4-[(2R)-4-(3-chloropyridin-4-yl)-2-methylpiperazin-1-yl]-6-(3,4-difluorophenyl)pyrimidine], the half-maximal inhibitory concentration (IC50) was no more than 1 µM.

As to `CC1CCCN1c1nc(-c2ccc(F)c(F)c2)cc(N2CCN(c3ccncc3Cl)C[C@H]2C)n1` (some centres unmarked) [Example 828, 4-[4-(3-chloropyridin-4-yl)-2-methylpiperazin-1-yl]-6-(3,4-difluorophenyl)-2-(2-methylpyrrolidin-1-yl)pyrimidine], the half-inhibitory concentration (IC50) was no more than 1 µM. With `C[C@@H]1CN(c2ccncc2Cl)CCN1c1cc(-c2ccc(F)c(F)c2)nc(N2CCCC2)n1` [Example 829, 4-[(2R)-4-(3-chloropyridin-4-yl)-2-methylpiperazin-1-yl]-6-(3,4-difluorophenyl)-2-pyrrolidin-1-ylpyrimidine], the 50% inhibitory concentration (IC50) was no more than 1 µM. For `Fc1ccc(-c2cc(N3CCN(c4ncccc4C(F)(F)F)CC3)nc(-c3ccccn3)n2)cc1Cl` [Example 830, 4-(3-chloro-4-fluorophenyl)-2-pyridin-2-yl-6-{4-[3-(trifluoromethyl)pyridin-2-yl]piperazin-1-yl}pyrimidine], the IC50 is no more than 1 µM. For `CCCN1CC[C@H](N(C)c2nc(-c3ccc(F)c(C)c3)cc(N3CCN(c4ncccc4C(F)(F)F)CC3)n2)C1` [Example 831, 4-(4-fluoro-3-methylphenyl)-N-methyl-N-[(3S)-1-propylpyrrolidin-3-yl]-6-{4-[3-(trifluoromethyl)pyridin-2-yl]piperazin-1-yl}pyrimidin-2-amine], the IC50 is no more than 1 µM. With `O=C(O)C1CCCCN1c1nc(-c2ccc(F)c(Cl)c2)cc(N2CCN(c3ncccc3C(F)(F)F)CC2)n1` (centres unmarked) [Example 832, 1-(4-(3-chloro-4-fluorophenyl)-6-{4-[3-(trifluoromethyl)pyridin-2-yl]piperazin-1-yl}pyrimidin-2-yl)piperidine-2-carboxylic acid] the figure was no more than 1 µM; with `C[C@@H]1CN(c2ncccc2Cl)CCN1c1cc(-c2ccc(Cl)c(F)c2)nc(N2CCCC2)n1` [Example 833, 4-(4-chloro-3-fluorophenyl)-6-[(2R)-4-(3-chloropyridin-2-yl)-2-methylpiperazin-1-yl]-2-pyrrolidin-1-ylpyrimidine], no more than 1 µM. `CC1CCCN1c1nc(-c2ccc(Cl)c(F)c2)cc(N2CCN(c3ncccc3Cl)C[C@H]2C)n1` (some centres unmarked) [Example 834, 4-(4-chloro-3-fluorophenyl)-6-[4-(3-chloropyridin-2-yl)-2-methylpiperazin-1-yl]-2-(2-methylpyrrolidin-1-yl)pyrimidine]: the IC50 is no more than 1 µM. With `C[C@@H]1CN(c2ncccc2Cl)CCN1c1cc(-c2ccc(Cl)c(F)c2)nc(N2CCOCC2)n1` [Example 835, 4-{4-(4-chloro-3-fluorophenyl)-6-[(2R)-4-(3-chloropyridin-2-yl)-2-methylpiperazin-1-yl]pyrimidin-2-yl}morpholine] the figure was no more than 1 µM. In the case of `CC1CCCN1c1nc(-c2ccc3c(c2)CN(C)CC3(C)C)cc(N2CCN(c3ncccc3C(F)(F)F)CC2)n1` (centres unmarked) [Example 836, 2,4,4-trimethyl-7-(2-(2-methylpyrrolidin-1-yl)-6-{4-[3-(trifluoromethyl)pyridin-2-yl]piperazin-1-yl}pyrimidin-4-yl)-1,2,3,4-tetrahydroisoquinoline], the half-inhibitory concentration (IC50) is no more than 1 µM.

Regarding `C[C@@H]1CN(c2ncccc2Cl)CCN1c1cc(-c2cncc(Cl)c2)nc(N2CCOCC2)n1` [Example 837, 4-{4-(5-chloropyridin-3-yl)-6-[(2R)-4-(3-chloropyridin-2-yl)-2-methylpiperazin-1-yl]pyrimidin-2-yl}morpholine], the half-maximal inhibitory concentration (IC50) is no more than 1 µM. For `CCCN1CCN(c2nc(-c3cncc(Cl)c3)cc(N3CCN(c4ncccc4Cl)C[C@H]3C)n2)CC1` [Example 838, 4-(5-chloropyridin-3-yl)-6-[(2R)-4-(3-chloropyridin-2-yl)-2-methylpiperazin-1-yl]-2-(4-propylpiperazin-1-yl)pyrimidine], the half-maximal inhibitory concentration (IC50) was no more than 1 µM. With `COC[C@@H]1CCCN1c1nc(-c2ccc(F)cc2)cc(N2CCN(c3ncccc3Cl)C[C@H]2C)n1` [Example 843, 4-[(2R)-4-(3-chloropyridin-2-yl)-2-methylpiperazin-1-yl]-6-(4-fluorophenyl)-2-[(2S)-2-(methoxymethyl)pyrrolidin-1-yl]pyrimidine] the figure was no more than 1 µM.
